In a melting point compilation (Tetko et al.; mined from patent text by program, amines drawn as free bases though some values may be those of a salt) one finds melting point data, which are given here for 88 molecules.

Where only a bound is given, the exact number is not on record here.

What is called melting point is the temperature, or range, at which the solid turns liquid.

As to `O=C1N(c2cc(Cl)nc(Cl)c2)C(=O)C2(Cc3ccc(Br)cc3)CCCN12` (stereo not drawn), the melting point came to 76.3 °C.
As for `CCC1(c2cccc(OCc3ccccc3)c2)COC(C)(C)O1` (stereo not drawn), the figure is 51 to 53 °C.
As to `Clc1ccc(C2=NNCC2n2cc(Cl)cn2)cc1` (stereo not drawn), the melting point amounted to 176 °C.
Take `CCCS(=O)c1csc(C(=O)OC)c1S(N)(=O)=O` (stereo not drawn): the melting point is 131 to 144 °C.
Regarding `COc1cc2cc3ncc(C#N)c(Nc4ccc(Oc5ccccc5)c(Cl)c4)c3cc2cc1OCCN1CCOCC1`, the melting point fell in the range of 251 to 253 °C.
As for `CNc1ncnc2c1ncn2C1CC(F)C(CO)O1` (stereo not drawn), the figure is 100 to 103 °C.
`CC1=C(C(=O)N(C)Cc2ccc(Cl)cc2Cl)SC2=NCCN21` had a melting point of 55 to 60 °C.
The figure for `S=c1oc2ccccc2o1` is 151 to 153 °C.
Molecule `CN1C(=O)CCC2CC(C3=NNC(=O)CC3CO)=CC=C21` (stereo not drawn) registered a melting point of 201 to 204 °C.
For the molecule `COC(=O)Cn1sc2ccccc2c1=O`, the melting point fell in the range of 89 to 91 °C.
The molecule `N#Cc1cc(-c2ccncc2)cnc1Cl` had a melting point of 219 to 223 °C.
The figure for `CC(=O)NC[C@H]1CN(c2ccc(N3CCC(O)(CC#N)CC3)c(F)c2)C(=O)O1` is 162 to 164 °C; for `CCOC(=O)c1cn2c(cc(OC(C)C)c3ccc(OC)cc32)n1` it is 117 to 118 °C.
Consider `C[C@@H](c1ccc(-c2ccc(=O)n(C)c2)cc1)N1CC[C@](CC(C)(C)O)(c2ccccc2)OC1=O`, for which the melting point fell in the range of 180 to 181 °C.
As to `CC(C)(C)CCN1C(=O)C(N)C(=O)N(c2ccccc2F)c2ccccc21` (stereo not drawn), the melting point lay in the range of 98 to 100 °C.
The figure for `O=C(O)c1n[nH]c2c1C=CC(c1ccccc1)(c1ccccc1)C2` is over 260 °C.
As for `CCCn1c(=O)c2c(nc(/C=C/c3ccc(OC(=O)c4ccccc4)c(OC)c3)n2C)n(CCC)c1=O`, the figure is 156 to 157 °C; as for `CC(CC(=O)c1ccccc1)C(=O)N1CSCC1C(=O)O` (stereo not drawn), 182 to 183 °C; as for `CC(C)N1CCC(Nc2cccnc2)CC1`, 101 °C.
As to `CC(C)c1cccc(C(C)C)c1NC(=O)CNC(c1ccccc1)c1ccccc1Cl` (stereo not drawn), the melting point fell in the range of 119 to 121 °C.
With `CCCCCCN(C=CC=C(C#N)C#N)CCCCCC`, the melting point was in the range of 112 to 113 °C.
`CCCC(=O)c1cnc2c(C)cccc2c1Nc1ccc(Cl)cc1Cl` had a melting point of 169 to 170 °C.
As for `COc1ccc(-c2cc(=O)n(Cc3ccc(Cl)cc3Cl)nc2-c2ccc(OC)cc2)cc1`, the figure is 141 °C; as for `O=c1c2ccccc2nc(-c2cc(-c3ccncc3)c(N3CCOCC3)s2)n1-c1ccc(Cl)cc1`, 195 to 197 °C; as for `CC(=O)NC(CO)C(O)c1ccc(C=Cc2csc3ccccc23)s1` (stereo not drawn), 144 to 145 °C.
The figure for `S=C(Nc1ccccc1)N1CCN(c2nc3cccccc-3n2)CC1` is 267 to 269 °C; for `C=CCSc1ccc(Oc2ccccc2)nn1` it is 71 to 73 °C; for `Cc1cc(C)c2c(c1C)OC(C)(C)C2c1ccccc1` (stereo not drawn) it is 86 to 87 °C.
Regarding `COC(=O)CC(C)C(=O)c1ccc2c(c1)OCC(=O)N2` (stereo not drawn), the melting point was in the range of 95 to 98 °C.
The figure for `COCCOCCOCCn1c2ccc(C=O)cc2c2cc(C=O)ccc21` is 108 to 109 °C; for `C=CCOC(=O)C(Cc1ccc2ccc3cccc4ccc1c2c34)(Cc1ccc2ccc3cccc4ccc1c2c34)C(=O)OCC=C` it is 178 to 180 °C.
As for `CN1C(=O)C(c2ccc(OCCCCBr)cc2)Sc2cc(Cl)ccc21` (stereo not drawn), the figure is 70 to 72 °C; as for `Cc1cc(=O)c2ccc(N)cc2s1`, 165 to 169 °C; as for `CC(=O)Nc1ccccc1-c1nc(C)c(-c2cccnc2)[nH]1`, 270 to 271 °C.
The figure for `CNC(=O)N1N=C(c2ccc([N+](=O)[O-])cc2)c2cc(OC)c(Br)cc2CC1C` (stereo not drawn) is 224 to 226 °C; for `COc1cc2c(cc1Nc1ncc(Cl)c(Nc3ccccc3S(=O)(=O)N3CCCC3)n1)CCN(CC(=O)N(C)C)CC2` it is 67 to 74 °C; for `Cn1c(OC2CCOC2)nn(C(=O)Oc2ccccc2)c1=O` (stereo not drawn) it is 98 °C.
`CC(=NO)C(=O)c1ccccc1OCc1ccccc1` had a melting point of 78 to 80 °C.
As for `CC1(C)Nc2ccccc2-c2c(N)cnn21`, the figure is 181 to 183 °C; as for `O=C(NCC(O)(Cn1cncn1)c1ccc(Cl)cc1Cl)c1cccnc1` (stereo not drawn), 175 °C; as for `COc1ccc(-c2nc(Sc3ccc(F)cc3)[nH]c2-c2ccc(OC)cc2)cc1`, 106 °C.
`CC(=O)Nc1ccc2[nH]c(CO)cc2c1` had a melting point of 161 °C.
As for `OCC1OC(n2cnc3c(NCCCC(c4ccccc4)c4ccccc4)ncnc32)C(O)C1O` (stereo not drawn), the figure is 102 to 108 °C.
As for `CC(=O)Nc1cccc2c1C(=O)c1c-2n[nH]c1-c1cccnc1`, the figure is over 300 °C.
As to `C=CCC1C(OCc2ccccc2)CC(OCc2ccccc2)C1OS(=O)(=O)c1ccc(C)cc1` (single isomer, unassigned; (-)), the melting point is 57 to 58 °C.
The figure for `Cc1nc2cc(F)ccc2c(=O)n1C1CCC(=O)NC1=O` (stereo not drawn) is 243 to 245 °C; for `COc1ccc2[nH]cc(C3=C(c4c[nH]c5ccc(OC)cc45)C(=O)N(C)C3=O)c2c1` it is over 290 °C; for `CC(=O)N(O)Cc1ccccc1Nc1c(Cl)ccc(C)c1Cl` it is 155 to 156 °C.
The figure for `O=C(O)CCCN(C(=O)c1cccc(C(F)(F)F)c1)c1cccc2ccccc12` is 128 to 129 °C; for `CCCCNC(=O)S(=O)(=O)Nc1sc(CC(C)C)cc1-c1ccc(Cn2c(-c3ccccc3)nc(OC)c2C=O)cc1` it is 131 to 133 °C.
Molecule `CCCCCCCCCCCc1coc(N)n1` had a melting point of 55 to 58 °C.
As for `N#CC1=C(C2CC2)Nc2n[nH]cc2C1c1cccc(Cl)c1Cl` (stereo not drawn), the figure is over 250 °C; as for `COc1cc(C)c(NC(=O)OC(C)(C)C)c(C)c1C`, 104 to 106 °C.
Molecule `CCc1cccc(CC)c1NC(=O)Nc1sc2cc(OC)c(OC)cc2c1-c1ccccc1Cl` displayed a melting point of 229 to 231 °C.
As for `CC(=O)c1noc2cc(O)ccc12`, the figure is 159 to 161 °C.
The figure for `CC(=O)c1ccc(OCC(=O)NC2CCN(Cc3ccc(Cl)c(Cl)c3)CC2)cc1` is 113 °C; for `N#CCc1ccccc1-c1ccc(C(=O)O)cc1` it is 218 to 220 °C.
Molecule `CN(C)c1ccc(C2(c3ccc(N(C)C)cc3)NNC(=O)c3cc(N(C)C)ccc32)cc1` returned a melting point of 265 to 270 °C.
The figure for `CCc1nc(OC)c(NC(=O)N2CCN(c3cc(OC)c(OC)c(OC)c3)CC2)cc1C(=O)Nc1cc(CO)cc(Nc2c3ccccc3nc3ccccc23)c1` is 190 to 192 °C; for `COc1cccc(C2=C(CC(C)=O)C(=O)NCCC2)c1` it is 140 to 142 °C.
`CCc1ccc(OC(CC)C(=O)OC2CC(O)C=C3C=CC(C)C(CCC4CC(O)CC(=O)O4)C32)cc1` (mixture of isomers) returned a melting point of 139 to 140 °C.
In turn, `CCOc1ccc2[nH]c(=O)n(C3CCCCCC3)c2c1` gave a melting point of 204 °C.
As for `NNc1nncc(-c2ccc(F)cc2)n1`, the figure is 228 to 231 °C; as for `CC(C)=C1CNc2ccc(O)cc21`, 175 to 178 °C; as for `CC(c1oc2ccc(Br)cc2c(=O)c1-c1ccccc1)n1ncc2c(N)ncnc21` (stereo not drawn), 239 to 240 °C.
The figure for `COc1cc(C(=O)NS(=O)(=O)c2ccccc2)ccc1CBr` is 159 to 160 °C.
Consider `CC(=O)OC1CSC(Sc2ccc(C(F)(F)F)cc2)C(OC(C)=O)C1OC(C)=O` (stereo not drawn), for which the melting point is 160 °C.
The figure for `CSC1NC(=O)N(c2cccc(C(F)(F)F)c2)C(=O)N1` is 225 to 228 °C; for `O=C(O)CNC(=O)c1ccccc1NC(=O)c1ccccc1O` it is 222 to 224 °C; for `CCCC1=C(C(=O)OCC)C(c2ccccc2Cl)c2cnn(C(=O)OC(C)(C)C)c2N1` (stereo not drawn) it is 112 to 116 °C.
The molecule `CN(C)c1ccccc1CS(=O)c1nccn1-c1ccc(N)cn1` (stereo not drawn) displayed a melting point of 140 to 143 °C.
As to `CC1(C)SC(=N)NC1=O`, the melting point lay in the range of 252 to 254 °C.
As for `Cc1cccc(Nc2cc(-c3c(-c4cccc(C)c4)nc4cccnn34)ccn2)c1`, the figure is 195 to 196 °C.
`CC1=CCc2c1sc1c2CN(c2ccccc2Cl)CC2N(C(=O)O)CCN12` (stereo not drawn) returned a melting point of 160 to 162 °C.
As for `CC(=O)Nc1ccc(CC(=O)N[C@H]2C[C@H](C(=O)O)Nc3cc(Cl)cc(Cl)c32)cc1` (relative stereo), the figure is 279 to 281 °C; as for `NNC(=O)Cc1cc(C(=O)c2ccc(I)c(N)c2)sc1-c1ccccc1`, 159 to 165 °C; as for `Cc1ccc2c(c1)C(=O)N(C)Cc1c(C#N)ncn1-2`, 252 °C.
In turn, `NC(=O)Cc1ccc(-c2csc(N=C(N)N)n2)o1` registered a melting point of 219 to 220 °C.
`COc1cc(C(=O)c2nc(-c3ccc[nH]3)c3ccccn23)ccc1N` displayed a melting point of 136 °C.
The figure for `CC(C)(C)OC(=O)[C@H](Cc1ccccc1)NC(=O)CNC1Cc2ccccc2C1` is 117 to 120 °C.
The figure for `Cc1cc(C)c(CNc2cccc(S(=O)(=O)O)c2)c(C)c1` is over 275 °C; for `CSC(=C[N+](=O)[O-])NCCSCc1ccco1` it is 68 to 70 °C; for `CC(C)(C)c1cc(CCc2ccccc2NC(=O)NC2CCC(O)CC2)cc(C(C)(C)C)c1O` (stereo not drawn) it is 202 to 203 °C.
As for `CC(C)OC(=O)c1nc(Cl)c(-c2c(F)cc(F)cc2F)c(N[C@@H](C)C(F)(F)F)n1`, the figure is 146 to 147 °C; as for `CCOc1nn(C)c(C(F)(F)F)c1CS(=O)(=O)C1=NOC(C)(C)C1`, 124 to 125 °C.
`O=C1CCC(n2cnc3ccc(Br)cc3c2=O)C(=O)N1` (stereo not drawn) registered a melting point of 273 to 275 °C.
Take `COC(=O)c1c(Br)c(Cl)cc2nn(C)cc12`: the melting point fell in the range of 141 to 142 °C.
As for `CC(=O)N(C)Cc1ccc2c(c1)C(Cc1ccnc(F)c1)(Cc1ccnc(F)c1)c1ccccc1-2`, the figure is 136 to 137 °C.
